Values joined by “and” are separate entries in the source; they are usually repeats but may differ in a detail not shown here. Equal entries are not always repeated. “Also recorded” adds a separate entry of the source. Ends that are not written are not given here.
How the values were obtained:
[1] = system: E. coli ATCC 8739-induced septic peritonitis; assay: E. coli-induced septic peritonitis model; format: in vivo, BALB/c mice; details: administration at 1, 24 and 72 h post injection of E. coli; last time point of 8 h
[2] = system: CLP-induced polymicrobial sepsis; assay: Cecal ligation and puncture (CLP) polymicrobial sepsis model; format: in vivo, BALB/c mice
Experimental: Polymicrobial sepsis was induced using the CLP method described by [Wendy E. Walker, 2021; Benjamim et al. 2000], with minor modifications and the anesthetic used. Initially, the Mice were derived of food for 12 h before the CLP procedure and then anesthetized by intraperitoneal injection of ketamine (80-100 mg/kg BW) and xylazine in a dose (5-10 mg/kg) (for 20 g mice ketamine of 0.2 ml and xylazine of 0.1 ml). according to [Machado et al. 2012]. under sterile conditions a midline abdominal incision was made and then, a laparotomy of 10 mm/1 cm was performed, where the abdomen of mice was routinely disinfected and cut open in the middle to expose the abdominal cavity, and the cecum was mobilized, was then ligated below the cecal valve at the distal end of the cecum, ¾ was ligated with a sterile No. 4 thread, and punctured (CLP) with a 20-gauge needle in 2 places at the center of the distal end of the occlusal cecum and squeezed gently to extrude a small amount of intestinal contents through the perforation site to induce sepsis. The cecum was located but not ligated or punctured in the control animals. The cecum was placed back into the peritoneal cavity, and the abdominal incision was then closed in two layers with absorbable ethilon suture 5.0, and the animals were resuscitated with 0.1-0.2 mL of normal saline by subcutaneous injection. The sham group of mice had the identical operation as the treated and disease control groups, which included opening the peritoneum and exposing the bowel but without ligation or needle perforation of the cecum. Betadine/tramadol was used to relieve the pain of mice after operation. During the surgery, the […] was applied to the eyes to prevent dryness of the eyes. All the animals were returned to their cages, where they had free access to food and water. After 2 h of CLP, the treatment groups were administered with test peptides (0.6 & 1.2 mg/kg) and the standard drug through the subcutaneous & Intravenous route. To reduce variability between studies, the CLP method was always carried out by the same investigators. [Zingarelli B et al., Libert C et al., Hellman J et al., 2019].
Mice were subjected to CLP surgery and were discarded if they died during the procedure. In all the animal experiments, the test peptide IS 111 was administered by injections respectively; According to the clinical dosage regimen, IS 111 was repeatedly administered at 2 h after CLP surgery and recovery of animals from anesthesia. The mice were divided into the following treatment groups at random: BALB/c mice are used for Intravenous (IV) route of administration. In each group the half of the animals were killed after 4 and 18 hours, [Hubbard, W. J 2005; Rittirsch D 2009]. In another half of the animals, IS 111 at two doses 0.6 & 1.2 mg/kg were injected IV daily for 5 days following CLP. 0.9% Normal saline was administered in the sham group. The survival of mice was monitored for up to 18 h and the other half of the animals are continued for the survival monitored up to 7 days.
In the survival study, survival rates were determined by setting the day 0 from 0 to 18 h after surgery and continuing observation until day 7. In one set of animals/group, survival was monitored every 4 h up to 18 h and in another half subset of animals was followed for 5 days for survival assessment every 12 h after sepsis induction to verify mortality rates. The time of death was recorded as accurately as possible.
The physical activity of the mice was recorded independently by two independent observers who were blinded to treatment before sampling as previously described. In this study predetermined grading system was used with a scale of 1 (healthy) to 5 (agony). This scoring system is based on grading physical activity and food intake (table 16) using spontaneous activity of mice, reactivity to external stimuli, and spontaneous food intake to differentiate between grades 1 and 5. […]

[3] = system: BALB/C mice; assay: Acute toxicity study, single dose; format: in vivo
Experimental: Once after acclimation period, a total of forty mice for IV route of administration, forty mice (half male and half female)/route were randomized based on bodyweight divided into four groups (10 in each group/per route, in each group 5 per sex) per strain via IV route of administration; prior to dosing initiation (table 12). On the day of dosing (designated as Day 0 of the study), the mice were 6 weeks old, and their body weights ranged from 20 to 25 g. The dosing volume was 0.1 ml per mice and the actual volume of peptide IS 111 solution administered was calculated based on body weight measurements obtained on the day of administration and was administered IV in increasing doses of the synthetic test peptide IS 111 0.6, 2.4, & 4.8 mg/kg; (administration once). The routes of administration were the same proposed for use in humans [Food and Drug Administration, 1988]. Prior to dosing the animals were deprived of food for 12 hours but had free access to drinking water. […]
After a single dose administration, mortality and clinical signs associated with toxicity were observed and recorded daily for consecutive two weeks; body weight changes were measured before and after administration on the 14th day. The animals were observed frequently during the first 4-6-hour period following dose administration and once daily, thereafter, for […], during which animals were evaluated for mortality, clinical signs of toxicity, and behavior. […] The number of animals killed for each of the doses was noted and the LD50 calculated by the Up and Down method, which is one of the most used to reduce the number of animals used [P. A. Botham, 2004]. […]
The mortality, general health status, and toxic reaction symptoms of the experimental groups were documented. Before the first day of IS 111 administration and during the experiments, a detailed clinical observation was carried out and recorded the changes in skin, eyes and mucous membrane, respiratory system, nervous system, activity, and behaviors of the […]. The body weight was measured and recorded before the first day of administration.

## FAKKFAK [IS 111, Phe-Ala-Lys-Lys-Phe-Ala-Lys]
[1]
  Survival: 80%
[2]; 0.6 mg/Kg, 18 h after CLP, scale 1 (very active) to 5 (lethargic)
  Activity index: 2.8 ± 0.5 Grade points
[2]; 0.6 mg/kg, 18 h
  Lung histology: Mild lung oedema, haemorrhage, and inflammatory cell infiltration
[2]; 24-48 h after CLP, treatment 2 h after CLP
  Serum IL-10: significant decrease
[2]; 18 h after CLP
  Bacterial growth in the peritoneum / bacterial counts: inhibited; also recorded: ↓bacterial counts; ↓liver & kidney
[2]; 18 h after CLP surgery
  Body temperature: in range of normal values
[2]; 18 h after CLP, IV
  IL-10 levels in serum: increased slightly and 6 and IL-12, &↑IL-10 in serum;
[2]; 7 days
  Survival percentage: 80%
[2]; IS 111-treated mice
  Myeloperoxidase levels in the lung: significantly decreased
[2]; vs diseased control animals (normal saline)
  Reduction of mortality: 80%
[2]; ~60 h post-CLP (last death in disease control group)
  Mice still surviving: 80%
[3]; any of the concentrations
  Adverse reaction in acute toxicity tests: no adverse reaction
[3]; single dose 0.6, 2.4, 4.8 mg/kg, 14 days
  Mortality: No mortality
[3]; single dose 0.6/2.4/4.8 mg/kg, intravenous
  Body weight and organ weights: no changes
